Key:
fixed cells = experiment: Fixed cell imaging: monitoring decrease in proximal phosphorylation; assay type: cell-based; conditions: 22 nM, pre-treatment prior to cell fixation
Protocol: (3 h prior to fixation, media was removed and 22 nM of Staurosporine (BioShop, cat. STA001) solution in fresh media was added and incubated at 37° C., 5% CO2 for 3 h).

[1] = tested on: proximally phosphorylated proteins (α-casein, β-casein and D-α-casein); experiment: In-solution detection of proteins; assay type: binding, Bos taurus; conditions: pH 7.5, 50 mM HEPES; for efficiency at detecting the proximally phosphorylated proteins: Zn^2+ (triflate salt) complexes, 75 mM NaCl, 20% DMSO
Source text: Non-phosphorylated (BSA and lysozyme) and distally phosphorylated negative control proteins (ovalbumin) were used in detection methods for in-solution, on gel and on blot applications. Dephosphorylated α-casein (D-α-casein), β-casein and α-casein served as proximally phosphorylated positive controls (see Table 2). The phosphosites presented in Table 2 were obtained from the PhosphoSitePlus database or a UniProt database.
Various conditions for the detection of proximally phosphorylated proteins and proteins in aqueous solution are shown in Table 3. Proteins were dissolved in a buffer at various concentrations (normally 100 μM to 40 nM), and combined with 40 μM of compound 1 in complex with Zn^2+ (triflate salt) dissolved in the same buffer on a 384 well flat bottom black plate. The mixture was incubated for 20 minutes and fluorescence emission intensity at 476 nm (10-20 nm bandwidth) was measured using a Tecan M1000 microplate reader, upon excitation at 350 nm (5 nm bandwidth) at 400 Hz. The different conditions tested were assessed based on the ratios of signal intensity of positive to negative control analytes and signal intensity in general. Among the parameters assessed in this study and using these specific control proteins, the following conditions were selected for proteins studies: pH 5.5 50 mM NaOAc, 50 mM NaCl, 5% DMSO (see FIG. 27). […] Depending on the number of proximally di-phosphorylated sites, lower detection limits could be achieved by using lower concentration of a sensor.
Using same methods as described in Example 1.1c, Zn^2+ (triflate salt) complexes of compounds 1 (top left), compound 9 (top right), compound 15 (middle left), and compound 14 (middle right) were tested in pH 7.5, 50 mM HEPES, 75 mM NaCl, 20% DMSO (see FIG. 28).
Using same methods as described in Example 14, 40 and 20 μM of Zn^2+ (triflate salt) complexes of compound 1 (top) and compound 12 (bottom) (FIG. 29), were tested in pH 7.5, 50 mM HEPES, 5% DMSO.
Using same methods as described above, 60, 40, 20 and 10 μM of Zn^2+ (triflate salt) complexed with compound 12 (FIG. 30), were titrated with 80-0.04 μM of proteins in pH 7.5, 50 mM HEPES, 5% DMSO.

[2] = tested on: proximally phosphorylated peptides; experiment: Detection of proximally phosphorylated peptides in aqueous solution (384 well plate, emission 476 nm); assay type: binding
Protocol: In one example 40 μM of compound 1 pre-metallated with zinc(II) triflate (referred to as “Zn^2+ pre-metallation” in FIG. 13; procedure described in example) was titrated with 80-0.04 μM of pY and pYpY peptides in 50 mM HEPES pH 7.5, 5% DMSO. In another example, 40 μM of compound 1 was dissolved in 50 mM HEPES pH 7.5, 5% DMSO, which contained 40 μM of zinc(II) triflate (referred to as “in situ Zn^2+ metallation” in FIG. 13) and was titrated with 80-0.04 μM of pY and pYpY peptides. Fluorescence measurements were performed as described in Example 2.
Various conditions for the detection of proximally phosphorylated peptides and proteins in aqueous solution are shown in Table 1. For the screens, analytes (peptides) were dissolved in a specific buffer at various concentrations (normally 100 μM to 40 nM), and combined with 40 μM of compound 1 in complex with Zn^2+ (triflate salt) dissolved in the same buffer on a 384 well flat bottom black plate. The mixture was incubated for 20 minutes and fluorescence emission intensity at 476 nm (10-20 nm bandwidth) was measured using a Tecan M1000 microplate reader, upon excitation at 350 nm (5 nm bandwidth) at 400 Hz. The different conditions tested were assessed based on the ratios of signal intensity of positive to negative control analytes and signal intensity in general.
Peptides containing two phosphotyrosine residues, spaced by 2-5 alanine residues, were titrated into 40 μM solution of compound 1 in complex with Zn^2+ (triflate salt) (pH 7.5 50 mM HEPES, 10% propylene, 25 mM NaCl) from 80 μM to 40 nM (FIG. 16). Y-axis is Δ Fluorescence Intensity as defined by the formula in example 2.
Using the same methods as described in Example 6, Zn^2+ (triflate salt) complexes of compounds 1, compound 9, compound 15, compound 14 were tested in pH 7.5, 50 mM HEPES, 25 mM NaCl, 10% propylene glycol.
Using the same methods as described in Example 6, Zn^2+ (triflate salt) complexes of compound 1 and compound 12 were tested in pH 7.5, 50 mM HEPES, 5% DMSO.

MRC-9 cells = experiment: Fixed cell imaging; assay type: cell-based, human
Protocol: MRC-9 cells were plated on an 8-chamber tissue culture treated glass slide (BD Falcon; 40,000 cells/chamber) and cultured for two days at 37° C., 5% CO2. Media was removed and cells were incubated with 200 μL of 3.4% formaldehyde solution in 1×PBS for 10 min. Cells were washed 3×3 min with PBS and stored in PBS at 4° C. until staining. Cells were washed 3× with 50 mM HEPES and incubated in 40 μM solution of compound 1 in complex with Zn^2+ (triflate salt) dissolved in 50 mM HEPES, 75 mM NaCl, 10% DMSO for 1 h. Cells were rinsed 2× with 50 mM HEPES and mounted with a mounting solution and a cover slip.

[3] = tested on: MRC-9 and A549 cell lines; experiment: Fixed cell imaging: monitoring increase in proximal phosphorylation; assay type: cell-based, human; conditions: pre-treatment before fixation
β-casein = molecular target: T1, β-casein (Bos taurus, UniProt P02666); experiment: On-gel detection of proximally phosphorylated protein using GaCl3 complexes; assay type: binding
T1 construct: purchased Sigma Aldrich C6905-250MG
T1 sequence (P02666 16-224): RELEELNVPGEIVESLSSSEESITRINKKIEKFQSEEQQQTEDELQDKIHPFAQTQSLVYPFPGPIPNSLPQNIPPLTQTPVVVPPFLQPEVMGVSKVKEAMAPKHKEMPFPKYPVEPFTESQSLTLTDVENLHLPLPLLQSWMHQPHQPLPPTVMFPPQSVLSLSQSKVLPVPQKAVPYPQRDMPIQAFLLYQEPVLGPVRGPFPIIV
Protocol: (§1) Compound 8 was dissolved in 50 mM NaOAc buffer, pH 4.5, 50 mM NaCl, 10% DMSO and combined with 80, 160 or and 240 μM GaCl3 solutions. Each gel contained 4 lanes with equal amounts of BSA, ovalbumin (Ova), β-casein (β-cas) and lysozyme (Lyso) in each lane (left to right: 1, 0.5, 0.25 and 0.125 μg per protein per lane) (see FIG. 37). Gels were stained for 1 h with the sensor solution. Gels were first de-stained with 50 mM NaOAc buffer pH 4.5 for 2 h and then with 50 mM NaOAc buffer pH 4.0 20% acetonitrile for 40 h.
(§2) Compound 8 was dissolved in 100 mM NaOAc buffer, pH 4.5, 150 mM NaCl, 20% propylene glycol and combined with 10 and 15 μM GaCl3 solutions. Each gel contained 4 lanes with equal amounts of BSA, ovalbumin (Ova), β-casein (β-cas) and lysozyme (Lyso) in each lane (FIG. 40) left to right: 1, 0.5, 0.25 and 0.125 μg per protein per lane). Gels were stained for 1.5 h with the sensor solution. Destaining was performed for variable time (specified at the top) with 50 mM NaOAc, pH 4.0, 20% acetonitrile. Gels were rinsed with MiliQ water for 5 min prior to imaging. Images were acquired using ChemiDoc MP, using a 530 nm emission filter and UV trans excitation.
as §1, with “Compound 2” for “Compound 8”, “lane) (FIG. 42).” for “lane) (see FIG. 37).”, “h. […] However with the increased destaining time the intensity of β-casein band relative to other proteins was increasing, resulting in a 6.7-fold higher intensity over the distally phosphorylated protein ovalbumin. Lane containing 1 μg of each protein was analyzed (FIG. 43).” for “h.”
as §2, with “2” for “8”, “45)” for “40)”, “acetonitrile (see FIGS. 45 and 46).” for “acetonitrile.”

[4] = Titration of compound with GaCl3 at different pH (fluorescence at 376 nm); assay type: binding; conditions: 40 μM compound
Protocol: GaCl3 was titrated into 40 μM (constant) of compound 2 from 500 to 0.25 μM at pH 4.5 (50 mM NaOAc) and 7.5 (HEPES). Fluorescence intensity was measured at 376 and 476 nm at 350 nm excitation. […] At pH 4.5 saturation is observed at 10 μM of GaCl3.
40 μM of compound 3 was titrated with GaCl3 (250-0.12 μM) and the change in emission at 376 nm was recorded upon excitation at 350 nm as shown in FIG. 48.

[5] = 100 mM NaOAc pH 4.5, 150 mM NaCl, 20% propylene glycol, destain 50 mM NaOAc, pH 4.0, 20% acetonitrile

## CN[C@@H]1C[C@H]2O[C@@](C)([C@@H]1OC)n1c3ccccc3c3c4c(c5c6ccccc6n2c5c31)C(=O)NC4 [staurosporine]
Fixed cells
  fluorescence intensity of compound 1-Zn^2+ complex compared to untreated control: time-dependent decrease

## c1cc2ccc3ccc(CN4CCNCCNCCNCC4)c4ccc(c1)c2c34 [compound 1, 1-(Pyren-1-methyl)-1,4,7,10-tetraazacyclododecane]
[1]
  efficiency at detecting the proximally phosphorylated proteins: comparable efficiency
[2]; Zn^2+ triflate complex, 40 μM
  signal with mono-phosphorylated or non-phosphorylated peptides: did not produce a significant signal
MRC-9 cells
  intracellular fluorescence, metallated vs non-metallated: only compound 1-Zn^2+ complex, is capable of inducing intracellular fluorescence

## IL-6: a JAK2 pathway-inducing agent
[3]
  fluorescent signal from compound 1-Zn^2+ in pre-treated cells: significantly increased

## c1cc2ccc3ccc(CN4CCCNCCNCCCNCC4)c4ccc(c1)c2c34 [compound 12, 1-(pyren-1-ylmethyl)-1,4,8,11-tetraazacyclotetradecane]
[1]; 60, 40, 20 and 10 μM Zn^2+ complex, 5% DMSO
  detection limit on lowering the concentration of the sensor: improved
[2]; Zn^2+ (triflate salt) complex, pH 7.5, 50 mM HEPES, 5% DMSO
  detecting proximally phosphorylated peptides: potent

## O=C(O)CN(CC(=O)O)c1ccccc1OCCOc1cc(NC(=O)CCCc2ccc3ccc4cccc5ccc2c3c45)ccc1N(CC(=O)O)CC(=O)O [compound 2, 2,2′-((2-(2-(2-(bis(carboxymethyl)amino)-5-(4-(pyren-1-yl)butanamido)phenoxy)ethoxy)phenyl)azanediyl)diacetic acid]
β-casein; 80 μM compound, 1:1 GaCl3, stained 1 h
  selectivity for β-casein after 2 h destaining: did not result in the selective staining
β-casein; 80 μM compound, 1:1 GaCl3, stained 1 h, 40 h destaining, 1 μg per protein
  β-casein over distally phosphorylated ovalbumin: 6.7 fold
β-casein; 50 mM NaOAc pH 4.5, 50 mM NaCl, 10% DMSO, 160 or 240 μM GaCl3
  selectivity for β-casein with more than 1:1 equivalent of compound:GaCl3: did not result in good selectivity
β-casein; 100 mM NaOAc pH 4.5, 150 mM NaCl, 20% propylene glycol, 1:1 and 1:1.5 compound:GaCl3, stained 1.5 h
  selective staining for β-casein, no destaining: did not result in selective staining
β-casein; [5]
  staining of β-casein band following 16 h destain: most prominently stained band
  β-casein signal over distally phosphorylated ovalbumin following 16 h destain: 10 fold
[4]; pH 4.5 (50 mM NaOAc)
  GaCl3 concentration at which saturation is observed: 10 µM
[4]; pH 7.5 (HEPES)
  saturation at higher concentration of GaCl3: saturation was not observed

## O=C(O)CN1CCN(CCCCc2ccc3ccc4cccc5ccc2c3c45)CCN(CC(=O)O)CCN(CC(=O)O)CC1 [compound 3, 2,2′,2″-(10-(4-(pyren-1-yl)butyl)-1,4,7,10-tetraazacyclododecane-1,4,7-triyl)triacetic acid]
[4]; pH 5.5 and 4.5, 50 mM NaOAc
  concentrations at which Ga^3+-compound complex formation was observed: single-digit

## c1cc2ccc3ccc(CCCCN4CCNCCNCCNCC4)c4ccc(c1)c2c34 [compound 9, 1-(4-(pyren-1-yl)butyl)-1,4,7,10-tetraazacyclododecane]
[1]
  efficiency at detecting the proximally phosphorylated proteins: comparable efficiency
[2]; Zn^2+ (triflate salt) complexes, pH 7.5, 50 mM HEPES, 25 mM NaCl, 10% propylene glycol
  sensitivity for peptides in which the two phosphorylated tyrosine residues are more spaced out, vs compound 1: increased
